The values that follow are results of earlier work, collected in US20120148649A1, “COMPOSITION FOR RESTORATION OF AGE RELATED TISSUE IN THE FACE OR SELECTED AREAS OF THE BODY” (priority 2004, published 2012).

Data set [1] concerns tumor growth. Particulars: deuterium concentration from 0.1 to 110 ppm; animal model studies.
For data set [2], the system named is cancer patients. Particulars: human clinical trials, hundreds of cancer patients.

As for deuterium depleted water, the “effect on tumor growth” value in data set [1] is “inhibits tumor growth”. In addition, the “effect on life span of cancer patients” value in data set [2] is “extended life span”.
